Here are results for 80 compounds from the Kinase Knowledgebase extract (Sharma et al. 2016).

The target in this test is CDK2 (UniProt P24941). Put plainly: Enzyme Assay.
Turning to `O=C(Nc1n[nH]c2ccc(N3CCCS3(=O)=O)cc12)C1(c2ccccc2)CCCC1`, the IC50 (as a rule, the midpoint of a concentration-inhibition curve) was less than 100000 nM.
The figure for `Nc1ccc(CC(=O)Nc2n[nH]c3ccc(N4CCCS4(=O)=O)cc23)cc1` is less than 50 nM; for `CC(C)(C)OC(=O)Nc1nc(CC(=O)Nc2n[nH]c3ccc(N4CCCS4(=O)=O)cc23)cs1` it is less than 100 nM; for `O=C(Cc1ccc(-c2ccsc2)cc1)Nc1n[nH]c2ccc(N3CCCS3(=O)=O)cc12` it is less than 50 nM.
Take `COc1ccc(CC(=O)Nc2n[nH]c3ccc(N4CCCS4(=O)=O)cc23)cc1`: the IC50 was less than 100 nM.
`O=C(Cc1ccc(Oc2ccccc2)cc1)Nc1n[nH]c2ccc(N3CCCS3(=O)=O)cc12` gave an IC50 of less than 100 nM.
The figure for `CCN(CC)c1cccc(CC(=O)Nc2n[nH]c3ccc(N4CCCS4(=O)=O)cc23)c1` is less than 500 nM; for `CCOc1ccc(CC(=O)Nc2n[nH]c3ccc(N4CCCS4(=O)=O)cc23)cc1S(=O)(=O)N1CCOCC1` it is less than 1000 nM; for `O=C(Cc1ccc([N+](=O)[O-])cc1)Nc1n[nH]c2ccc(N3CCCS3(=O)=O)cc12` it is less than 50 nM.
With `Nc1nc(CC(=O)Nc2n[nH]c3ccc(N4CCCS4(=O)=O)cc23)cs1`, the concentration for half-maximal inhibition (IC50) was less than 500 nM.
The figure for `O=C(Cc1ccc(OCc2ccccc2)cc1)Nc1n[nH]c2ccc(N3CCCS3(=O)=O)cc12` is less than 100 nM.
For `CNc1ccc(CC(=O)Nc2n[nH]c3ccc(N4CCCS4(=O)=O)cc23)cc1` the value was less than 50 nM; for `CC(=NO)Nc1n[nH]c2ccc(N3CCCS3(=O)=O)cc12`, less than 100000 nM; for `Cc1ccc(CC(=O)Nc2n[nH]c3ccc(N4CCCS4(=O)=O)cc23)cc1`, less than 50 nM.
`CCN(CC)c1ccc(CC(=O)Nc2n[nH]c3ccc(N4CCCS4(=O)=O)cc23)cc1` displayed a half-inhibitory concentration (IC50) of less than 50 nM.
For `O=C(Cc1ccc(S(=O)(=O)N2CCOCC2)cc1)Nc1n[nH]c2ccc(N3CCCS3(=O)=O)cc12` the value was less than 100 nM; for `O=S1(=O)CCCN1c1ccc2[nH]nc(NC(=S)Cc3ccccc3)c2c1`, less than 10000 nM.
Regarding `O=C(CN1CCCCC1)Nc1n[nH]c2ccc(N3CCCS3(=O)=O)cc12`, the IC50 is less than 10000 nM.
For `O=C(Cn1cnc(-c2ccc(-c3ccccc3)cc2)c1)Nc1n[nH]c2ccc(N3CCCS3(=O)=O)cc12` the value was less than 500 nM.
The figure for `NCCOc1ccc(CC(=O)Nc2n[nH]c3ccc(N4CCCS4(=O)=O)cc23)cc1` is less than 100 nM; for `O=C(Cc1ccc(-c2ccncc2)cc1)Nc1n[nH]c2ccc(N3CCCS3(=O)=O)cc12` it is less than 50 nM; for `O=C(Cc1cccc2ccccc12)Nc1n[nH]c2ccc(N3CCCS3(=O)=O)cc12` it is less than 50 nM.
The figure for `CN1CCN(S(=O)(=O)c2ccc(CC(=O)Nc3n[nH]c4ccc(N5CCCS5(=O)=O)cc34)cc2)CC1` is less than 1000 nM; for `O=C(Cc1ccc(Br)cc1)Nc1n[nH]c2ccc(N3CCCS3(=O)=O)cc12` it is less than 50 nM; for `O=S1(=O)CCCN1c1ccc2[nH]nc(NC(Cc3ccccc3)=NO)c2c1` it is less than 10000 nM.
Take `CCOc1ccc(CC(=O)Nc2n[nH]c3ccc(N4CCCS4(=O)=O)cc23)cc1S(=O)(=O)N1CCN(C)CC1`: the half-inhibitory concentration (IC50) was less than 1000 nM.
The figure for `O=C(Cc1ccc(F)cc1)Nc1n[nH]c2ccc(N3CCCS3(=O)=O)cc12` is less than 50 nM; for `O=C(CN1CCN(c2ccc(Cl)cc2)CC1)Nc1n[nH]c2ccc(N3CCCS3(=O)=O)cc12` it is less than 10000 nM; for `CCNc1nc(CC(=O)Nc2n[nH]c3ccc(N4CCCS4(=O)=O)cc23)cs1` it is less than 500 nM.
For `CC(=O)Nc1n[nH]c2ccc(N3CCCS3(=O)=O)cc12` the value was more than 100000 nM; for `O=C(Cc1ccc(O)cc1)Nc1n[nH]c2ccc(N3CCCS3(=O)=O)cc12`, less than 50 nM; for `CCOc1ccc(CC(=O)Nc2n[nH]c3ccc(N4CCCS4(=O)=O)cc23)cc1[N+](=O)[O-]`, less than 50 nM.
Compound `O=C(Cc1ccc2c(c1)OCO2)Nc1n[nH]c2ccc(N3CCCS3(=O)=O)cc12` showed an IC50 of less than 50 nM.
With `CCOc1ccc(CC(=O)Nc2n[nH]c3ccc(N4CCCS4(=O)=O)cc23)cc1`, the half-maximal inhibitory concentration (IC50) is less than 50 nM.
For `O=C(Cc1ccc(Cl)cc1)Nc1n[nH]c2ccc(N3CCCS3(=O)=O)cc12` the value was less than 50 nM.
In the case of `O=C(CCc1ccccc1)Nc1n[nH]c2ccc(N3CCCS3(=O)=O)cc12`, the IC50 was less than 1000 nM.
For `CCOc1ccccc1N1CCN(CC(=O)Nc2n[nH]c3ccc(N4CCCS4(=O)=O)cc23)CC1` the value was less than 10000 nM.
For `O=C(Nc1n[nH]c2ccc(N3CCCS3(=O)=O)cc12)C(c1ccccc1)C1CCCC1` (stereo not given) the value was less than 100000 nM.
In turn, `CCC(C(=O)Nc1n[nH]c2ccc(N3CCCS3(=O)=O)cc12)c1ccccc1` (stereo not given) showed an IC50 of less than 100000 nM.
For `O=C(Cn1cnc(-c2ccc3ccccc3c2)c1)Nc1n[nH]c2ccc(N3CCCS3(=O)=O)cc12` the value was less than 50 nM; for `CC(C)c1ccc(CC(=O)Nc2n[nH]c3ccc(N4CCCS4(=O)=O)cc23)cc1`, less than 50 nM; for `CS(=O)(=O)c1ccc(CC(=O)Nc2n[nH]c3ccc(N4CCCS4(=O)=O)cc23)cc1`, less than 50 nM.
For `Nc1cccc(CC(=O)Nc2n[nH]c3ccc(N4CCCS4(=O)=O)cc23)c1`, the IC50 was less than 50 nM.
`CCOCCOCCOc1ccc(CC(=O)Nc2n[nH]c3ccc(N4CCCS4(=O)=O)cc23)cc1`: the half-maximal inhibitory concentration (IC50) is less than 100 nM.
Regarding `CCOc1ccc(CC(=O)Nc2n[nH]c3ccc(N4CCCS4(=O)=O)cc23)cc1S(N)(=O)=O`, the IC50 was less than 1000 nM.
For `CSc1ccc(CC(=O)Nc2n[nH]c3ccc(N4CCCS4(=O)=O)cc23)cc1` the value was less than 50 nM; for `CC(=O)c1ccc(N2CCN(CC(=O)Nc3n[nH]c4ccc(N5CCCS5(=O)=O)cc34)CC2)cc1`, less than 10000 nM; for `Cc1cccc(CC(=O)Nc2n[nH]c3ccc(N4CCCS4(=O)=O)cc23)c1`, less than 50 nM.
Consider `O=C(Cc1ccc(-c2ccco2)cc1)Nc1n[nH]c2ccc(N3CCCS3(=O)=O)cc12`, for which the IC50 was less than 50 nM.
The figure for `COCCOCCOCCOc1ccc(CC(=O)Nc2n[nH]c3ccc(N4CCCS4(=O)=O)cc23)cc1` is less than 100 nM; for `O=C(Cc1ccc2ccccc2c1)Nc1n[nH]c2ccc(N3CCCS3(=O)=O)cc12` it is less than 50 nM.
The figure for `CCOc1ccc(CC(=O)Nc2n[nH]c3ccc(N4CCCS4(=O)=O)cc23)cc1Cl` is less than 100 nM; for `CC(=S)Nc1n[nH]c2ccc(N3CCCS3(=O)=O)cc12` it is less than 50000 nM.
The figure for `O=C(Cc1ccc(Cl)c(Cl)c1)Nc1n[nH]c2ccc(N3CCCS3(=O)=O)cc12` is less than 50 nM; for `O=C(Cc1ccc(N(Cc2ccccc2)Cc2ccccc2)cc1)Nc1n[nH]c2ccc(N3CCCS3(=O)=O)cc12` it is less than 500 nM.
For `O=C(Cc1ccc(-c2ccccc2)cc1)Nc1n[nH]c2ccc(N3CCCS3(=O)=O)cc12`, the IC50 is less than 50 nM.
For `O=C(Cc1cccc(Br)c1)Nc1n[nH]c2ccc(N3CCCS3(=O)=O)cc12` the value was less than 50 nM.
Compound `O=C(Cc1csc(NCc2ccc(OCc3ccccc3)cc2)n1)Nc1n[nH]c2ccc(N3CCCS3(=O)=O)cc12` showed a concentration for half-maximal inhibition (IC50) of less than 10000 nM.
For `O=C(CN1CCc2ccccc2C1)Nc1n[nH]c2ccc(N3CCCS3(=O)=O)cc12`, the IC50 is less than 1000 nM.
The figure for `COc1cc(CC(=O)Nc2n[nH]c3ccc(N4CCCS4(=O)=O)cc23)cc(OC)c1` is less than 50 nM; for `O=C(Cc1cccc([N+](=O)[O-])c1)Nc1n[nH]c2ccc(N3CCCS3(=O)=O)cc12` it is less than 50 nM; for `CN1CCN(Cc2ccc(CC(=O)Nc3n[nH]c4ccc(N5CCCS5(=O)=O)cc34)cc2)CC1` it is less than 100 nM.
For `O=C(Cn1cnc(-c2ccccc2)c1)Nc1n[nH]c2ccc(N3CCCS3(=O)=O)cc12` the value was less than 50 nM; for `O=C(Cc1cccc(Cl)c1)Nc1n[nH]c2ccc(N3CCCS3(=O)=O)cc12`, less than 50 nM; for `O=C(Cc1ccc(CN2CCOCC2)cc1)Nc1n[nH]c2ccc(N3CCCS3(=O)=O)cc12`, less than 100 nM.
For `CCOc1cccc(CC(=O)Nc2n[nH]c3ccc(N4CCCS4(=O)=O)cc23)c1` the value was less than 50 nM.
For the compound `O=C(Cc1ccc(Cn2ccnc2)cc1)Nc1n[nH]c2ccc(N3CCCS3(=O)=O)cc12`, the IC50 is less than 1000 nM.
The compound `Cc1ccccc1CC(=O)Nc1n[nH]c2ccc(N3CCCS3(=O)=O)cc12` gave an IC50 of less than 100 nM.
For `O=C(CN1CCOCC1)Nc1n[nH]c2ccc(N3CCCS3(=O)=O)cc12` the value was less than 10000 nM; for `CN1CCN(CC(=O)Nc2n[nH]c3ccc(N4CCCS4(=O)=O)cc23)CC1`, less than 10000 nM; for `O=C(Cn1cnc(-c2ccc(Br)cc2)c1)Nc1n[nH]c2ccc(N3CCCS3(=O)=O)cc12`, less than 100 nM.
The figure for `CCNc1cccc(CC(=O)Nc2n[nH]c3ccc(N4CCCS4(=O)=O)cc23)c1` is less than 500 nM.
`O=C(Cn1cnc2ccccc21)Nc1n[nH]c2ccc(N3CCCS3(=O)=O)cc12` registered an IC50 of less than 50 nM.
For `COc1ccc(N2CCN(CC(=O)Nc3n[nH]c4ccc(N5CCCS5(=O)=O)cc34)CC2)cc1` the value was less than 10000 nM.
`O=C(CN1CCN(c2ccccc2)CC1)Nc1n[nH]c2ccc(N3CCCS3(=O)=O)cc12` gave an IC50 of less than 500 nM.
For `O=C(Cc1ccccc1)Nc1n[nH]c2ccc(N3CCCS3(=O)=O)cc12` the value was less than 50 nM; for `O=C(Cc1ccc(N2CCOCC2)cc1)Nc1n[nH]c2ccc(N3CCCS3(=O)=O)cc12`, less than 100 nM; for `CCNc1ccc(CC(=O)Nc2n[nH]c3ccc(N4CCCS4(=O)=O)cc23)cc1`, less than 50 nM.
Compound `CC(=O)Nc1nc(CC(=O)Nc2n[nH]c3ccc(N4CCCS4(=O)=O)cc23)cs1` came in with a half-maximal inhibitory concentration (IC50) of less than 10000 nM.
`CCN(CC)c1nc(CC(=O)Nc2n[nH]c3ccc(N4CCCS4(=O)=O)cc23)cs1` gave a 50% inhibitory concentration (IC50) of less than 500 nM.
